This experiment concerns the target Factor D (Homo sapiens (Human), UniProt P00746). Kind of experiment: biochemical. The class given is biochemical. Particulars: read-out: IC50.

Drawing on patent US9085555B2, “Complement pathway modulators and uses thereof” (priority 2011, dated 2015), this text covers IC50 for 27 compounds.

Molecules are shown by their SMILES.

Factor D, sequence (P00746 26-253): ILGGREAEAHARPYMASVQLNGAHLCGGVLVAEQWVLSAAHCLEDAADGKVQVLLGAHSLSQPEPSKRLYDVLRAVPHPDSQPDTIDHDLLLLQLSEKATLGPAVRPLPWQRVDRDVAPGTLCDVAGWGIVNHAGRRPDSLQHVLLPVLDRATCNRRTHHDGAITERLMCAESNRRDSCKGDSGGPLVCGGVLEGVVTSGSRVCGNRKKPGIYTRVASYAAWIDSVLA

For the compound `C=CCOc1ccc2c(NC(=O)N3C[C@H](F)C[C@H]3C(=O)NCc3cccc(Cl)c3F)cn(C(N)=O)c2c1` [Example 280, (2S,4R)-4-Fluoro-pyrrolidine-1,2-dicarboxylic acid 1-[(6-allyloxy-1-carbamoyl-1H-indol-3-yl)-amide] 2-(3-chloro-2-fluoro-benzylamide)], the IC50 was 250 nM.

In the case of `CC(=O)n1cc(NC(=O)N2[C@@H]3C[C@@H]3C[C@H]2C(=O)N[C@H](CN(C)C)c2cccc(Cl)c2F)c2ccccc21` [Example 281, (1R,3S,5R)-2-Aza-bicyclo[3.1.0]hexane-2,3-dicarboxylic acid 2-[(1-acetyl-1H-indol-3-yl)-amide] 3-{[(S)-1-(3-chloro-2-fluoro-phenyl)-2-dimethylamino-ethyl]-amide}], the IC50 was determined as 18 nM.

In the case of `CNC(=O)n1cc(NC(=O)N2CCC[C@H]2C(=O)Nc2cccc(OC(F)(F)F)c2)c2ccccc21` [Example 282, (S)-Pyrrolidine-1,2-dicarboxylic acid 1-[(1-methylcarbamoyl-1H-indol-3-yl)-amide] 2-[(3-trifluoromethoxy-phenyl)-amide]], the half-inhibitory concentration (IC50) amounted to 3680 nM.

Take `NC(=O)n1cc(NC(=O)N2CC[C@@H](O)[C@H]2C(=O)NCc2cnc(Cl)s2)c2ccccc21` [Example 283, (2S,3R)-3-Hydroxy-pyrrolidine-1,2-dicarboxylic acid 1-[(1-carbamoyl-1H-indol-3-yl)-amide] 2-[(2-chloro-thiazol-5-ylmethyl)-amide]]: the IC50 amounted to 900 nM.

As to `CNC(=O)n1cc(NC(=O)N2[C@H](C(=O)NCc3cccc(Cl)c3F)C[C@@]3(COC)C[C@@H]23)c2ccccc21` [Example 284, (1R,3S,5S)-5-Methoxymethyl-2-aza-bicyclo[3.1.0]hexane-2,3-dicarboxylic acid 3-(3-chloro-2-fluoro-benzylamide) 2-[(1-methylcarbamoyl-1H-indol-3-yl)-amide]], the IC50 turned out to be 286 nM.

For the compound `CC(C)c1cccc(NC(=O)[C@@H]2C[C@H]3C[C@H]3N2C(=O)Nc2cn(C(N)=O)c3ccccc23)c1` [Example 285, (1R,3S,5R)-2-Aza-bicyclo[3.1.0]hexane-2,3-dicarboxylic acid 2-[(1-carbamoyl-1H-indol-3-yl)-amide] 3-[(3-isopropyl-phenyl)-amide]], the IC50 was 55 nM.

In the case of `NC(=O)n1cc(NC(=O)N2CCC[C@H]2C(=O)Nc2cccc(OC(F)(F)F)c2)c2ccc(Br)cc21` [Example 286, (S)-Pyrrolidine-1,2-dicarboxylic acid 1-[(6-bromo-1-carbamoyl-1H-indol-3-yl)-amide] 2-[(3-trifluoromethoxy-phenyl)-amide]], the IC50 stood at 2650 nM.

Regarding `CNC(=O)n1cc(NC(=O)N2[C@@H]3C[C@@H]3C[C@H]2C(=O)N[C@H](CO)c2cccc(Cl)c2F)c2ccccc21` [Example 287, (1R,3S,5R)-2-Azabicyclo[3.1.0]hexane-2,3-dicarboxylic acid 3-{[(S)-1-(3-chloro-2-fluoro-phenyl)-2-hydroxy-ethyl]-amide}2-[(1-methylcarbamoyl-1H-indol-3-yl)-amide]], the IC50 turned out to be 112 nM.

Take `CCc1ccc2c(NC(=O)N3CCC[C@H]3C(=O)Nc3cccc(OC(F)(F)F)c3)cn(C(N)=O)c2c1` [Example 288, (S)-Pyrrolidine-1,2-dicarboxylic acid 1-[(1-carbamoyl-6-ethyl-1H-indol-3-yl)-amide] 2-[(3-trifluoromethoxy-phenyl)-amide]]: the IC50 was found to be 1100 nM.

As for `CNC(=O)n1cc(NC(=O)N2[C@@H]3C[C@@H]3C[C@H]2C(=O)N[C@H](CN(C)C)c2cccc(Cl)c2F)c2ccccc21` [Example 289, (1R,3S,5R)-2-Aza-bicyclo[3.1.0]hexane-2,3-dicarboxylic acid 3-{[(S)-1-(3-chloro-2-fluoro-phenyl)-2-dimethylamino-ethyl]-amide} 2-[(1-methylcarbamoyl-1H-indol-3-yl)-amide]], the IC50 was 555 nM.

Turning to `NC(=O)n1cc(NC(=O)N2CCC[C@H]2C(=O)Nc2cccc(OC(F)(F)F)c2)c2ccc(Cl)cc21` [Example 291, (S)-Pyrrolidine-1,2-dicarboxylic acid 1-[(1-carbamoyl-6-chloro-1H-indol-3-yl)-amide] 2-[(3-trifluoromethoxy-phenyl)-amide]], the IC50 worked out at 3250 nM.

For the compound `COc1ccc2c(c1)c(NC(=O)N1C[C@H](F)C[C@H]1C(=O)NCc1cccc(Cl)c1F)cn2C(N)=O` [Example 292, (2S,4R)-4-Fluoro-pyrrolidine-1,2-dicarboxylic acid 1-[(1-carbamoyl-5-methoxy-1H-indol-3-yl)-amide] 2-(3-chloro-2-fluoro-benzylamide)], the IC50 turned out to be 3 nM.

`NC(=O)n1cc(NC(=O)N2CCS[C@H]2C(=O)NCc2ccc(Cl)s2)c2ccccc21` [Example 293, (S)-Thiazolidine-2,3-dicarboxylic acid 3-[(1-carbamoyl-1H-indol-3-yl)-amide] 2-[(5-chloro-thiophen-2-ylmethyl)-amide]]: the IC50 worked out at 35 nM.

Consider `NC(=O)n1cc(NC(=O)N2C3CC3C[C@H]2C(=O)NCc2cccc(Cl)c2F)c2cc(F)ccc21` (stereo partly drawn) [Example 294, (1R,3S,5R)-2-Aza-bicyclo[3.1.0]hexane-2,3-dicarboxylic acid 2-[(1-carbamoyl-5-fluoro-1H-indol-3-yl)-amide] 3-(3-chloro-2-fluoro-benzylamide)], for which the IC50 was determined as 5 nM.

Turning to `NC(=O)n1cc(NC(=O)N2C3CC3C[C@H]2C(=O)NCc2cnc(Cl)s2)c2ccccc21` (stereo partly drawn) [Example 295, (1R,3S,5R)-2-Aza-bicyclo[3.1.0]hexane-2,3-dicarboxylic acid 2-[(1-carbamoyl-1H-indol-3-yl)-amide] 3-[(2-chloro-thiazol-5-ylmethyl)-amide]], the IC50 stood at 150 nM.

As to `NC(=O)n1cc(NC(=O)N2C[C@H](F)C[C@H]2C(=O)N[C@@H](c2cccc(Cl)c2)C(F)(F)F)c2ccccc21` [Example 296, (2S,4R)-4-Fluoro-pyrrolidine-1,2-dicarboxylic acid 1-[(1-carbamoyl-1H-indol-3-yl)-amide] 2-{[(S)-1-(3-chloro-phenyl)-2,2,2-trifluoro-ethyl]-amide}], the IC50 was 218 nM.

`NC(=O)n1cc(NC(=O)N2C3CC3C[C@H]2C(=O)Nc2cccc(OC(F)(F)F)c2)c2ccc(F)cc21` (stereo partly drawn) [Example 297, (1R,3S,5R)-2-Aza-bicyclo[3.1.0]hexane-2,3-dicarboxylic acid 2-[(1-carbamoyl-6-fluoro-1H-indol-3-yl)-amide] 3-[(3-trifluoromethoxy-phenyl)-amide]]: the IC50 came out at 350 nM.

Regarding `COc1ccc2c(c1)c(NC(=O)N1C[C@H](F)C[C@H]1C(=O)Nc1cccc(OC(F)(F)F)c1F)cn2C(N)=O` [Example 298, (2S,4R)-4-Fluoro-pyrrolidine-1,2-dicarboxylic acid 1-[(1-carbamoyl-5-methoxy-1H-indol-3-yl)-amide] 2-[(2-fluoro-3-trifluoromethoxy-phenyl)-amide]], the IC50 was 7 nM.

Consider `NC(=O)n1cc(NC(=O)N2CC[C@H]2C(=O)Nc2cccc(OC(F)(F)F)c2)c2ccccc21` [Example 299, (S)-Azetidine-1,2-dicarboxylic acid 1-[(1-carbamoyl-1H-indol-3-yl)-amide] 2-[(3-trifluoromethoxy-phenyl)-amide]], for which the IC50 is 1800 nM.

Consider `COc1ccc2c(c1)c(NC(=O)N1C3CC3C[C@H]1C(=O)NCc1cccc(Cl)c1F)cn2C(N)=O` (stereo partly drawn) [Example 300, (1R,3S,5R)-2-Aza-bicyclo[3.1.0]hexane-2,3-dicarboxylic acid 2-[(1-carbamoyl-5-methoxy-1H-indol-3-yl)-amide] 3-(3-chloro-2-fluoro-benzylamide)], for which the IC50 is 4 nM.

`NC(=O)n1cc(NC(=O)N2CC(F)(F)C[C@H]2C(=O)NCc2cccc(Cl)c2F)c2ccccc21` [Example 301, (S)-4,4-Difluoro-pyrrolidine-1,2-dicarboxylic acid 1-[(1-carbamoyl-1H-indol-3-yl)-amide] 2-(3-chloro-2-fluoro-benzylamide)]: the IC50 is 95 nM.

Take `CC1(C)CC[C@@H](C(=O)NCc2cccc(Cl)c2F)N1C(=O)Nc1cn(C(N)=O)c2ccccc12` [Example 302, (S)-5,5-Dimethyl-pyrrolidine-1,2-dicarboxylic acid 1-[(1-carbamoyl-1H-indol-3-yl)-amide] 2-(3-chloro-2-fluoro-benzylamide)]: the IC50 came out at 75 nM.

On to `COCCOc1ccc2c(c1)c(NC(=O)N1C[C@H](F)C[C@H]1C(=O)NCc1cccc(Cl)c1F)cn2C(N)=O` [Example 303, (2S,4R)-4-Fluoro-pyrrolidine-1,2-dicarboxylic acid 1-{[1-carbamoyl-5-(2-methoxy-ethoxy)-1H-indol-3-yl]-amide} 2-(3-chloro-2-fluoro-benzylamide)], for which the IC50 was determined as 8 nM.

With `Cc1ccnc(CNC(=O)[C@@H]2C[C@@H](F)CN2C(=O)Nc2cn(C(N)=O)c3ccccc23)c1F` [Example 304, (2S,4R)-4-Fluoro-pyrrolidine-1,2-dicarboxylic acid 1-[(1-carbamoyl-1H-indol-3-yl)-amide] 2-[(3-fluoro-4-methyl-pyridin-2-ylmethyl)-amide]], the IC50 amounted to 653 nM.

Consider `NC(=O)n1cc(NC(=O)N2C[C@H](F)C[C@H]2C(=O)NCc2cncc(C(F)(F)F)c2)c2ccccc21` [Example 305, (2S,4R)-4-Fluoro-pyrrolidine-1,2-dicarboxylic acid 1-[(1-carbamoyl-1H-indol-3-yl)-amide] 2-[(5-trifluoromethyl-pyridin-3-ylmethyl)-amide]], for which the IC50 worked out at 1350 nM.

For `CCOC(=O)Cc1ccc2c(c1)c(NC(=O)N1[C@@H]3C[C@@H]3C[C@H]1C(=O)NCc1cccc(Cl)c1F)cn2C(N)=O` [Example 306, (1-carbamoyl-3-{[(1R,3S,5R)-3-(3-chloro-2-fluoro-benzylcarbamoyl)-2-aza-bicyclo[3.1.0]hexane-2-carbonyl]-amino}-1H-indol-5-yl)-acetic acid ethyl ester], the IC50 was 4 nM.

On to `NC(=O)n1cc(NC(=O)N2CCC3C[C@@]32C(=O)Nc2cccc(OC(F)(F)F)c2)c2ccccc21` (stereo partly drawn) [Example 307, (1S,5R)-2-Aza-bicyclo[3.1.0]hexane-1,2-dicarboxylic acid 2-[(1-carbamoyl-1H-indol-3-yl)-amide] 1-[(3-trifluoromethoxy-phenyl)-amide]], for which the IC50 came to 13300 nM.
